From ChEMBL document CHEMBL2086323, “Anti-adipogenic chromone glycosides from Cnidium monnieri fruits in 3T3-L1 cells” (2012)
Active and inactive are the calls of the source. The rule behind the calls is not given here.

Legend:
3T3-L1 [1] = assay: Inhibition of adipogenesis in mouse 3T3L1 cells assessed as fat accumulation at 300 uM after 8 days by oil red O-staining based by ELISA plate reader; type: functional; details: 3T3-L1, 192 h
3T3-L1 [2] = assay: Inhibition of adipogenesis in mouse 3T3L1 cells assessed as fat accumulation at 300 uM up to 2 days by oil red O-staining based by ELISA plate reader; type: functional, cell-based
3T3-L1 [3] = assay: Inhibition of adipogenesis in mouse 3T3L1 cells assessed as fat accumulation at 300 uM after 2 to 4 days by oil red O-staining based by ELISA plate reader; type: functional, cell-based
3T3-L1 [4] = assay: Inhibition of adipogenesis in mouse 3T3L1 cells assessed as fat accumulation at 300 uM after 4 to 8 days by oil red O-staining based by ELISA plate reader; type: functional, cell-based
3T3-L1 [5] = assay: Inhibition of adipogenesis in mouse 3T3L1 cells assessed as fat accumulation at 300 uM up to 4 days by oil red O-staining based by ELISA plate reader; type: functional, cell-based
3T3-L1 [6] = assay: Inhibition of adipogenesis in mouse 3T3L1 cells assessed as fat accumulation at 300 uM after 2 to 8 days by oil red O-staining based by ELISA plate reader; type: functional, cell-based
3T3-L1 [7] = assay: Inhibition of adipogenesis in mouse 3T3L1 cells assessed as fat accumulation at 100 uM after 8 days by oil red O-staining based by ELISA plate reader; type: functional; details: 3T3-L1, 192 h

| Structure (SMILES) | inhibition at 300 µM (3T3-L1 [1]) [%] | other results |
| --- | --- | --- |
| C=C(C)C(Cc1c(O)cc2oc(CO)cc(=O)c2c1O)O[C@@H]1O[C@H](CO)[C@@H](O)[C@H](O)[C@H]1O (stereo partly drawn) [MONNIERISIDE D] | 85.5 | – |
| C/C(=C/Cc1c(O[C@@H]2O[C@H](CO)[C@@H](O)[C@H](O)[C@H]2O)cc2oc(C)cc(=O)c2c1O)CO | 87 | – |
| C=C(C)C1Cc2c(cc3oc(CO[C@@H]4O[C@H](CO)[C@@H](O)[C@H](O)[C@H]4O)cc(=O)c3c2O)O1 (stereo partly drawn) [MONNIERISIDE F] | 97.1 | – |
| COc1cc2oc(C)cc(=O)c2c(O)c1C/C=C(/C)CO[C@@H]1O[C@H](CO)[C@@H](O)[C@H](O)[C@H]1O [CNIDIMOSIDE B] | 14.7 | inhibition (3T3-L1 [2]): Active; inhibition (3T3-L1 [3]): Active; inhibition (3T3-L1 [4]): Active; inhibition (3T3-L1 [5]): Active; inhibition (3T3-L1 [6]): Active |
| C/C(=C/Cc1c(O[C@@H]2O[C@H](CO)[C@@H](O)[C@H](O)[C@H]2O)cc2oc(CO)cc(=O)c2c1O)CO [MONNIERISIDE B] | 68.9 | – |
| C=C(C)C(O)Cc1c(O[C@@H]2O[C@H](CO)[C@@H](O)[C@H](O)[C@H]2O)cc2oc(CO)cc(=O)c2c1O (stereo partly drawn) [MONNIERISIDE E] | 82.2 | – |
| Oc1ccc(/C=C/c2cc(O)cc(O)c2)cc1 [RESVERATROL] | – | inhibition at 100 µM (3T3-L1 [7]): 19.4% |
| C/C(=C/Cc1c(O)cc2oc(CO)cc(=O)c2c1O)CO[C@@H]1O[C@H](CO)[C@@H](O)[C@H](O)[C@H]1O [HYDROXYCNIDIMOSIDE A] | 73.1 | – |
| C/C(=C/Cc1c(O)cc2oc(C)cc(=O)c2c1O)CO[C@@H]1O[C@H](CO)[C@@H](O)[C@H](O)[C@H]1O [CNIDIMOSIDE A] | 75 | – |
| Cc1cc(=O)c2c(O)c3c(cc2o1)OC(C(C)(C)O[C@@H]1O[C@H](CO)[C@@H](O)[C@H](O)[C@H]1O)C3 (stereo partly drawn) [MONNIERISIDE G] | 99.7 | – |
| C=C(C)C(Cc1c(O)cc2oc(C)cc(=O)c2c1O)O[C@@H]1O[C@H](CO)[C@@H](O)[C@H](O)[C@H]1O (stereo partly drawn) [MONNIERISIDE C] | 79.9 | – |
| C=C(C)C1Cc2c(cc3oc(CO)cc(=O)c3c2O)O1 (stereo not drawn) [UMTATIN] | 89.4 | – |
| Cc1cc(=O)c2c(O)cc(O[C@@H]3O[C@H](CO)[C@@H](O)[C@H](O)[C@H]3O)cc2o1 [UNDULATOSIDE A] | 88.5 | – |
